Data as given in patent publication US8563473B2, “Aqueous herbicidal concentrates of auxinic carboxylic acids with reduced eye irritancy” (Dow AgroSciences, LLC., priority 2010, dated 2013).

What was measured:
[1] = tested on: susceptible plants; conditions: concentrate diluted in water, applied postemergently; disclosed in WO 2008/106107 A1; cited from earlier work
[2] = Cold temperature stability / storage of aqueous concentrates; assay type: physicochemical; conditions: […] salt solution ([…] acid equivalent) stored at −10° C. for 14 days

Substance: choline salt of 2,4-D [2,4-D choline]
- Weed control [1]: good weed control

Substance: triclopyr choline salt
- Crystallization on storage [2]: did not show any crystallization
